Results reported in patent US8058306B2, “Phenyl pyrrole aminoguanidine derivatives” (Action Pharma A/S, priority 2006, dated 2011).
Several values for one entry are separate records, joined by “and”; a condition that tells them apart may be missing. Equal values may be shown once. Entries after “also recorded” stand apart in the source; their conditions may differ. Read-outs that look alike come from different tables or passages of the source.

Test: Plasma kinetics in rat following intravenous and oral administration;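 as to AUC0-∞: parameter is AUC from zero to infinity in ng·h/mL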
Type: in vivo, Sprague Dawley rats
Details: male rats
Experimental: This study determined the intravenous pharmacokinetics and oral bioavailability of compound 1 of the invention (see FIG. 1A, structure no. 1), compound 2 of the invention (see FIG. 1D, structure no. 19) and compound 3 of the invention (see FIG. 1I, structure no. 53) following administration to Sprague Dawley rats at a dose level of 10 mg/kg.
Six groups of 3 male rats received either a single intravenous or single oral administration of compound 1, 2 or 3 of the invention at a dose level of 10 mg/kg. Blood samples were obtained at various times after dosing. Plasma samples were analysed for unchanged test item using a suitable LC-MS/MS method. Pharmacokinetic parameters were estimated from individual plasma concentrations.
Eighteen male rats each received either a single intravenous or a single oral administration of either compound 1, 2 or 3 at a dose level of 10 mg/kg. The formulation was orally administered to each animal by gastric gavage and intravenously administered to each animal via a tail vein. The dose was administered at a dose volume of 5 mL/kg. The formulations were administered to each animal according to the details in the following table:
Blood samples (ca 0.3 mL) were removed from the femoral vein of each animal into tubes containing lithium heparin as anticoagulant.
Blood samples were collected from 3 rats at the following times after dose administration: • 3, 6, 15, 45 min and 1.5, 2.5, 4, 6, 8, 24 h post dose. Oral Administration
Blood samples were collected from 3 rats at the following times after dose administration: • 5, 15, 45 min and 1.5, 2.5, 4, 6, 8, 24 h post dose. Processing of Blood Samples
Pharmacokinetic parameters of compound 1, 2 and 3 were derived by non-compartmental analysis using WinNonLin Pro version 5.0.1 (Pharsight 2005). The following parameters were derived, where appropriate, from the individual plasma concentration versus time profiles:
• F % The absolute oral bioavailability calculated as [AUC0-t (oral)*Dose(iv)/AUC0-t (iv)*Dose (oral)]*100 based on mean values derived after oral and intravenous administration Consideration was given to the estimation of λz and corresponding t1/2 values. Three or more points are required within the terminal phase for λz and t1/2 to be estimated. The following additional variables were tabulated to aid identification of potentially unreliable estimates of t1/2 and AUC:
Pharmacokinetic parameters were reported as geometric mean except Tmax which was reported as the median. Geometric coefficient of variation was calculated as: […]
Actual sampling times were used for all calculations of pharmacokinetic parameters. Plasma concentrations that were below the limit of quantification were taken as zero for the pharmacokinetic analysis.

[1] = oral 10 mg/kg, individual animals, acetate, 10 mg/kg

Structure (SMILES): N=C(N)NN=CC=Cc1cccn1-c1ccccc1Br [Compound 3, [1-(2-bromophenyl)-1H-pyrrol-2-yl-allylideneamino]guanidinium acetate]
- AUC(0-inf) (male, Sprague Dawley, rat, plasma, po, 10 mg/kg, oral 10 mg/kg, Geometric mean): 837 ng·h/mL
- AUC(0-t) (male, Sprague Dawley, rat, plasma, po, 10 mg/kg, oral 10 mg/kg, Geometric mean, read-out: AUC0-t): 509 ng·h/mL
- Cmax (male, Sprague Dawley, rat, plasma, po, 10 mg/kg, oral 10 mg/kg, Geometric mean, read-out: Cmax): 108 ng/mL
- MRT (male, Sprague Dawley, rat, plasma, po, 10 mg/kg, oral 10 mg/kg, Geometric mean, read-out: MRT): 6.83 h
- half-life (male, Sprague Dawley, rat, plasma, po, 10 mg/kg, oral 10 mg/kg, Geometric mean, read-out: t1/2 (converted)): 3.3 h
- Tmax (male, Sprague Dawley, rat, plasma, po, 10 mg/kg, oral 10 mg/kg, Geometric mean, read-out: tmax): 4.59 h
- AUC(0-inf) (male, Sprague Dawley, rat, plasma, po, 10 mg/kg, oral 10 mg/kg, Median): 838 ng·h/mL
- AUC(0-t) (male, Sprague Dawley, rat, plasma, po, 10 mg/kg, oral 10 mg/kg, Median, read-out: AUC0-t): 565 ng·h/mL
- Cmax (male, Sprague Dawley, rat, plasma, po, 10 mg/kg, oral 10 mg/kg, Median, read-out: Cmax): 112 ng/mL
- MRT (male, Sprague Dawley, rat, plasma, po, 10 mg/kg, oral 10 mg/kg, Median, read-out: MRT): 6.83 h
- half-life (male, Sprague Dawley, rat, plasma, po, 10 mg/kg, oral 10 mg/kg, Median, read-out: t1/2 (converted)): 3.3 h
- Tmax (male, Sprague Dawley, rat, plasma, po, 10 mg/kg, oral 10 mg/kg, Median, read-out: tmax): 4.02 h
- AUC(0-inf) (male, Sprague Dawley, rat, plasma, po, 10 mg/kg, oral 10 mg/kg, individual animals): 863 ng·h/mL
- AUC(0-t) (male, Sprague Dawley, rat, plasma, po, 10 mg/kg, oral 10 mg/kg, individual animals, read-out: AUC0-t): 605 ng·h/mL
- Cmax (male, Sprague Dawley, rat, plasma, po, 10 mg/kg, oral 10 mg/kg, individual animals, read-out: Cmax): 132 ng/mL
- MRT (male, Sprague Dawley, rat, plasma, po, 10 mg/kg, oral 10 mg/kg, individual animals, read-out: MRT): 6.82 h
- half-life (male, Sprague Dawley, rat, plasma, po, 10 mg/kg, oral 10 mg/kg, individual animals, read-out: t1/2 (converted)): 3.19 h
- Tmax (male, Sprague Dawley, rat, plasma, po, 10 mg/kg, oral 10 mg/kg, individual animals, read-out: tmax): 4.02 h
- Tmax (male, Sprague Dawley, rat, plasma, po, 10 mg/kg, oral 10 mg/kg, from mean plasma concentrations, read-out: time post dose at which maximum plasma concentration was observed (tmax)): 4 h
- half-life (male, Sprague Dawley, rat, plasma, po, 10 mg/kg, oral 10 mg/kg, read-out: apparent terminal half-life (converted)): 3.3 h
- concentration at 0.08 h (male, Sprague Dawley, rat, plasma, po, 10 mg/kg, single oral 10 mg/kg, 0.08 h, individual animals, LLOQ 2.50 (Table X: * 5.0, ** 25, diluted samples), read-out: Sample Concentration in plasma): 2.53 ng/mL
- concentration at 0.08 h (male, Sprague Dawley, rat, plasma, po, 10 mg/kg, single oral 10 mg/kg, 0.08 h, mean, read-out: Mean Concentration in plasma): 2.53 ng/mL
- concentration at 0.25 h (male, Sprague Dawley, rat, plasma, po, 10 mg/kg, single oral 10 mg/kg, 0.25 h, mean of 3, read-out: Mean Concentration in plasma): 20.5 ng/mL
- concentration at 0.75 h (male, Sprague Dawley, rat, plasma, po, 10 mg/kg, single oral 10 mg/kg, 0.75 h, individual animals, read-out: Sample Concentration in plasma): 29.1 ng/mL
- concentration at 0.75 h (male, Sprague Dawley, rat, plasma, po, 10 mg/kg, single oral 10 mg/kg, 0.75 h, mean of 3, read-out: Mean Concentration in plasma): 30.8 ng/mL
- concentration at 1.5 h (male, Sprague Dawley, rat, plasma, po, 10 mg/kg, single oral 10 mg/kg, 1.5 h, mean of 3, read-out: Mean Concentration in plasma): 39.2 ng/mL
- concentration at 2.5 h (male, Sprague Dawley, rat, plasma, po, 10 mg/kg, single oral 10 mg/kg, 2.5 h, mean of 3, read-out: Mean Concentration in plasma): 62.7 ng/mL
- concentration at 4 h (male, Sprague Dawley, rat, plasma, po, 10 mg/kg, single oral 10 mg/kg, 4 h, individual animals, read-out: Sample Concentration in plasma): 112 ng/mL
- concentration at 4 h (male, Sprague Dawley, rat, plasma, po, 10 mg/kg, single oral 10 mg/kg, 4 h, mean of 3, read-out: Mean Concentration in plasma): 92.5 ng/mL
- concentration at 6 h (male, Sprague Dawley, rat, plasma, po, 10 mg/kg, single oral 10 mg/kg, 6 h, individual animals, read-out: Sample Concentration in plasma): 70.4 ng/mL
- concentration at 6 h (male, Sprague Dawley, rat, plasma, po, 10 mg/kg, single oral 10 mg/kg, 6 h, mean of 3, read-out: Mean Concentration in plasma): 80.1 ng/mL
- concentration at 8 h (male, Sprague Dawley, rat, plasma, po, 10 mg/kg, single oral 10 mg/kg, 8 h, individual animals, LLOQ 2.50, read-out: Sample Concentration in plasma): 50.1 ng/mL
- concentration at 8 h (male, Sprague Dawley, rat, plasma, po, 10 mg/kg, single oral 10 mg/kg, 8 h, mean, LLOQ 2.50, read-out: Mean Concentration in plasma): 60.8 ng/mL
- mean absorption time (MAT) (oral 10 mg/kg): 3.52 h
- MAT (oral 10 mg/kg, Arithmetic Mean): 3.59 h
- MAT (oral 10 mg/kg, Geometric mean): 3.52 h
- MAT (oral 10 mg/kg, Median): 3.59 h
- AUC0-∞ [1]: 812 ng·h/mL
- AUC(0-t) [1]: 565 ng·h/mL and 386 ng·h/mL
- Cmax [1]: 85.5 ng/mL
- MAT [1]: 2.86 h and 4.32 h
- MRT [1]: 6.84 h
- Tmax [1]: 6.00 h
- t1/2 [1]: 3.42 h
- maximum observed plasma concentration, mean value (oral 10 mg/kg, at tmax): 92.5 ng/mL
- Sample Concentration in plasma (single intravenous 10 mg/kg, 0.05 h, individual animals, acetate, 10 mg/kg): 2940 ng/mL and 4040 ng/mL
- Sample Concentration in plasma (single intravenous 10 mg/kg, 0.1 h, individual animals, acetate, 10 mg/kg): 1300 ng/mL and 1030 ng/mL
- Sample Concentration in plasma (single intravenous 10 mg/kg, 0.25 h, individual animals, acetate, 10 mg/kg): 904 ng/mL and 954 ng/mL
- Sample Concentration in plasma (single intravenous 10 mg/kg, 0.75 h, individual animals, acetate, 10 mg/kg): 445 ng/mL and 545 ng/mL
- Sample Concentration in plasma (single intravenous 10 mg/kg, 1.5 h, individual animals, acetate, 10 mg/kg): 327 ng/mL and 403 ng/mL
- Sample Concentration in plasma (single intravenous 10 mg/kg, 2.5 h, individual animals, acetate, 10 mg/kg): 274 ng/mL and 240 ng/mL
- Sample Concentration in plasma (single intravenous 10 mg/kg, 4 h, individual animals, acetate, 10 mg/kg): 225 ng/mL and 171 ng/mL
- Sample Concentration in plasma (single intravenous 10 mg/kg, 6 h, individual animals, acetate, 10 mg/kg): 129 ng/mL and 124 ng/mL
- Sample Concentration in plasma (single intravenous 10 mg/kg, 8 h, individual animals, LLOQ 2.50, acetate, 10 mg/kg): <LLOQ and 100 ng/mL
- Sample Concentration in plasma (single intravenous 10 mg/kg, 24 h, individual animals, LLOQ 2.50, acetate, 10 mg/kg): <LLOQ and 2.55 ng/mL
- adverse effects (single intravenous or oral administration, 10 mg/kg, acetate): No adverse effects; also recorded: No adverse affects
- Sample Concentration in plasma (single oral 10 mg/kg, 0.08 h, individual animals, LLOQ 2.50 (Table X: * 5.0, ** 25, diluted samples), acetate, 10 mg/kg): <LLOQ
- Sample Concentration in plasma (single oral 10 mg/kg, 0.25 h, individual animals, acetate, 10 mg/kg): 14.7 ng/mL and 14.1 ng/mL and 32.8 ng/mL
- Sample Concentration in plasma (single oral 10 mg/kg, 0.75 h, individual animals, acetate, 10 mg/kg): 26.6 ng/mL and 36.6 ng/mL
- Sample Concentration in plasma (single oral 10 mg/kg, 1.5 h, individual animals, acetate, 10 mg/kg): 61.4 ng/mL and 19.2 ng/mL and 37.0 ng/mL
- Sample Concentration in plasma (single oral 10 mg/kg, 2.5 h, individual animals, acetate, 10 mg/kg): 82.5 ng/mL and 37.2 ng/mL and 68.4 ng/mL
- Sample Concentration in plasma (single oral 10 mg/kg, 4 h, individual animals, acetate, 10 mg/kg): *33.4 ng/mL and 132 ng/mL
- Sample Concentration in plasma (single oral 10 mg/kg, 6 h, individual animals, acetate, 10 mg/kg): 85.5 ng/mL and 84.5 ng/mL
- Sample Concentration in plasma (single oral 10 mg/kg, 8 h, individual animals, LLOQ 2.50, acetate, 10 mg/kg): 76.1 ng/mL and 56.2 ng/mL
- Sample Concentration in plasma (single oral 10 mg/kg, 24 h, individual animals, LLOQ 2.50): <LLOQ
- Mean Concentration in plasma (single oral 10 mg/kg, 24 h, mean, LLOQ 2.50): <LLOQ
